Experimental data reported in patent US10111875B2, “Pyrrolopyrimidine compounds and uses thereof” (HUTCHISON MEDIPHARMA LIMITED, priority 2010, dated 2018).

biological target: Recombinant human JAK1 catalytic domain (Homo sapiens (Human), UniProt P23458); experiment: JAK1 kinase assay (Z'-LYTE Tyr 6 Peptide); format: biochemical; details: JAK1 kinase assay, 0.3 uM concentration; read-out: inhibition percentage (IR %)
Protocol: JAK1/2/3 kinase assay are performed in vitro using Kit-Tyr 6 Peptide (Invitrogen, Cat. No. PV4122). TYK2 kinase assay are performed in vitro using Z′-LYTE™ Kinase Assay Kit-Tyr 3 Peptide (Invitrogen, Cat. No. PV3192). […] All compounds are initially tested at 8 different concentrations (1 μM down to 0.0003 μM) using a 1:3 serial dilution scheme.

Recombinant human JAK1 catalytic domain, sequence (P23458 875-1153): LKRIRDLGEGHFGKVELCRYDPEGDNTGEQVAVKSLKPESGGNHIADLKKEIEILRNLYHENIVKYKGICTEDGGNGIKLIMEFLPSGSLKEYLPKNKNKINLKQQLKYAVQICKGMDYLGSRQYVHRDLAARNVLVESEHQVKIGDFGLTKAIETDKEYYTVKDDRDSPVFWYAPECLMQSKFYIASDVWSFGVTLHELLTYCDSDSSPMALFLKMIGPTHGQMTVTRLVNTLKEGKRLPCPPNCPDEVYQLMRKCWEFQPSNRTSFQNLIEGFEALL

SMILES | inhibition at 0.3 µM
C#CCN(C1CCCC1)[C@@H]1CCN(c2ncnc3[nH]ccc23)C1 [Compound 39, (R)—N-cyclopentyl-N-(prop-2-ynyl)-1-(7H-pyrrolo[2,3-d]pyrimidin-4-yl)pyrrolidin-3-amine] | 20 to 50%
CN(c1c(F)cc(C#N)cc1F)[C@@H]1CCN(c2ncnc3[nH]ccc23)C1 [Compound 108] | 50 to 100%
CN(c1ccc(NS(=O)(=O)Cc2cccc(Cl)c2)cn1)[C@@H]1CCN(c2ncnc3[nH]ccc23)C1 [Compound 224] | 50 to 100%
CN(C(=O)Cc1ccc(C#N)cc1)[C@@H]1CCN(c2ncnc3[nH]ccc23)C1 [Compound 20] | 50 to 100%
COc1ccc(NC(=O)c2ccc(N(C)[C@@H]3CCN(c4ncnc5[nH]ccc45)C3)nc2)cc1 [Compound 183] | 50 to 100%
CCS(=O)(=O)N(C)[C@@H]1CCN(c2ncnc3[nH]ccc23)C1 [Compound 48] | 50 to 100%
COc1nc(N(C)[C@@H]2CCN(c3ncnc4[nH]ccc34)C2)ccc1C#N [Compound 42] | 50 to 100%
CN(C(=O)N1CCC[C@@H]1C#N)[C@@H]1CCN(c2ncnc3[nH]ccc23)C1 [Compound 38] | 50 to 100%
CN(c1ccc(S(=O)(=O)Nc2ccn(C)n2)cn1)[C@@H]1CCN(c2ncnc3[nH]ccc23)C1 [Compound 250] | 20 to 50%
CN(c1cnc(C#N)cn1)[C@@H]1CCN(c2ncnc3[nH]ccc23)C1 [Compound 84] | 50 to 100%
CN(c1ccc(C(F)(F)F)nn1)[C@@H]1CCN(c2ncnc3[nH]ccc23)C1 [Compound 62] | 50 to 100%
Cc1ccc(NC(=O)c2ccc(N(C)[C@@H]3CCN(c4ncnc5[nH]ccc45)C3)nc2)cc1 [Compound 186] | 50 to 100%
CN(c1ccc(C#N)cn1)[C@H]1CCN(c2ncnc3[nH]ccc23)C1 [Compound 102] | 50 to 100%
CN(C(=O)C1(C#N)CC1)[C@@H]1CCN(c2ncnc3[nH]ccc23)C1 [Compound 6] | 50 to 100%
COc1cc2ncnc(N(C)[C@@H]3CCN(c4ncnc5[nH]ccc45)C3)c2cc1OC [Compound 86] | 50 to 100%
Cc1cc(C#N)cnc1N(C)[C@@H]1CCN(c2ncnc3[nH]ccc23)C1 [Compound 100] | 20 to 50%
CN(C(=O)CO)[C@@H]1CCN(c2ncnc3[nH]ccc23)C1 [Compound 24] | 50 to 100%
CN([C@@H]1CCN(c2ncnc3[nH]ccc23)C1)S(=O)(=O)c1cccc(C#N)c1 [Compound 10] | 50 to 100%
C[C@H](NC(=O)c1ccc(N(C)[C@@H]2CCN(c3ncnc4[nH]ccc34)C2)c(F)c1)c1ccccc1 [Compound 182] | 50 to 100%
CN(c1ccc(C(=O)NC2c3ccccc3C[C@H]2O)cc1F)[C@@H]1CCN(c2ncnc3[nH]ccc23)C1 (single isomer, unassigned) [Compound 204] | 50 to 100%
Cc1nc(N(C)[C@@H]2CCN(c3ncnc4[nH]ccc34)C2)ccc1C#N [Compound 155] | 50 to 100%
CN(c1ccc([N+](=O)[O-])cn1)[C@@H]1CCN(c2ncnc3[nH]ccc23)C1 [Compound 70] | 50 to 100%
CN(c1c(F)c(F)c(C#N)c(F)c1F)[C@@H]1CCN(c2ncnc3[nH]ccc23)C1 [Compound 117] | 50 to 100%

SMILES | inhibition at 0.3 µM
CN(c1ccc(C(=O)NCc2ccccc2)cn1)[C@@H]1CCN(c2ncnc3[nH]ccc23)C1 [Compound 172] | 20 to 50%
CN(c1cnc(NCC2CC2)cn1)[C@@H]1CCN(c2ncnc3[nH]ccc23)C1 [Compound 138] | 50 to 100%
N#Cc1ccc2c(c1)CCN2C1CCN(c2ncnc3[nH]ccc23)C1 (stereo not drawn) [Compound 46] | 50 to 100%
CN(c1ccc([N+](=O)[O-])c(N)n1)[C@@H]1CCN(c2ncnc3[nH]ccc23)C1 [Compound 78] | 20 to 50%
CN(c1cccc(C#N)n1)[C@@H]1CCN(c2ncnc3[nH]ccc23)C1 [Compound 91] | 50 to 100%
N#Cc1cnc(N[C@@H]2CCN(c3ncnc4[nH]ccc34)C2)c([N+](=O)[O-])c1 [Compound 97] | 50 to 100%
Cc1ccc(CS(=O)(=O)Nc2ccc(N(C)[C@@H]3CCN(c4ncnc5[nH]ccc45)C3)nc2)cc1 [Compound 222] | 50 to 100%
CN(c1ccc(C(=O)Nc2ccc(Cl)cc2)cn1)[C@@H]1CCN(c2ncnc3[nH]ccc23)C1 [Compound 193] | 20 to 50%
CCNS(=O)(=O)c1ccc(N(C)[C@@H]2CCN(c3ncnc4[nH]ccc34)C2)nc1 [Compound 240] | 50 to 100%
CN([C@@H]1CCN(c2ncnc3[nH]ccc23)C1)S(=O)(=O)c1ccc(C#N)cc1 [Compound 9] | 20 to 50%
CN(C(=O)c1ccc(N(C)[C@@H]2CCN(c3ncnc4[nH]ccc34)C2)nc1)c1ccc(F)cc1 [Compound 178] | 50 to 100%
CN(c1ccc(C(=O)N[C@@H](CO)c2ccccc2)cc1Cl)[C@@H]1CCN(c2ncnc3[nH]ccc23)C1 [Compound 205] | 50 to 100%
CN(c1ccc(C(=O)Nc2cccc(F)c2)cn1)[C@@H]1CCN(c2ncnc3[nH]ccc23)C1 [Compound 177] | 50 to 100%
CCN(c1ccc(C#N)cc1F)[C@@H]1CCN(c2ncnc3[nH]ccc23)C1 [Compound 133] | 50 to 100%
CN(c1cnc(-c2ccn[nH]2)cn1)[C@@H]1CCN(c2ncnc3[nH]ccc23)C1 [Compound 152] | 50 to 100%
COc1nccc(N(C)[C@@H]2CCN(c3ncnc4[nH]ccc34)C2)n1 [Compound 141] | 20 to 50%
C#CCN(C1CCCCC1)[C@@H]1CCN(c2ncnc3[nH]ccc23)C1 [Compound 54] | 20 to 50%
CN(c1ncc(Br)cc1C#N)[C@@H]1CCN(c2ncnc3[nH]ccc23)C1 [Compound 89] | 50 to 100%
CN(c1ccc(S(C)(=O)=O)cn1)[C@@H]1CCN(c2ncnc3[nH]ccc23)C1 [Compound 61] | 50 to 100%
CN(C)C(=O)c1ccc(N(C)[C@@H]2CCN(c3ncnc4[nH]ccc34)C2)nc1 [Compound 173] | 20 to 50%
CN(c1ncc(C#N)s1)[C@@H]1CCN(c2ncnc3[nH]ccc23)C1 [Compound 95] | 50 to 100%
CN(c1ccc(Br)cn1)[C@@H]1CCN(c2ncnc3[nH]ccc23)C1 [Compound 68] | 50 to 100%
CN(c1cccc(C#N)c1)[C@@H]1CCN(c2ncnc3[nH]ccc23)C1 [Compound 119, (R)-3-((1-(7H-pyrrolo[2,3-d]pyrimidin-4-yl)pyrrolidin-3-yl)(methyl)amino)benzonitrile] | 50 to 100%

SMILES | inhibition at 0.3 µM
CN(C(=O)Nc1ccc(C#N)c(F)c1)[C@@H]1CCN(c2ncnc3[nH]ccc23)C1 [Compound 31] | 50 to 100%
CN(c1ccc(Cl)cn1)[C@@H]1CCN(c2ncnc3[nH]ccc23)C1 [Compound 67] | 50 to 100%
CN(c1ccc(C#N)cc1Cl)[C@@H]1CCN(c2ncnc3[nH]ccc23)C1 [Compound 112] | 50 to 100%
CN(C(=O)c1cccc(C#N)c1)[C@@H]1CCN(c2ncnc3[nH]ccc23)C1 [Compound 8] | 20 to 50%
CN(c1cc(F)c(C#N)c(F)c1)[C@@H]1CCN(c2ncnc3[nH]ccc23)C1 [Compound 106] | 50 to 100%
C#CCN(C1CCOC1)[C@@H]1CCN(c2ncnc3[nH]ccc23)C1 (stereo partly drawn) [Compound 56] | 50 to 100%
COCC(=O)N(C)[C@@H]1CCN(c2ncnc3[nH]ccc23)C1 [Compound 4] | 20 to 50%
CN(c1ccc(C(=O)N[C@@H]2CCC[C@H]2O)cn1)[C@@H]1CCN(c2ncnc3[nH]ccc23)C1 [Compound 194] | 20 to 50%
CN(c1ccc(F)cn1)[C@@H]1CCN(c2ncnc3[nH]ccc23)C1 [Compound 66] | 20 to 50%
C[C@@H](NC(=O)c1ccc(N(C)[C@@H]2CCN(c3ncnc4[nH]ccc34)C2)nc1)c1ccccc1 [Compound 195] | 50 to 100%
CN(c1ccc(C#N)nn1)[C@@H]1CCN(c2ncnc3[nH]ccc23)C1 [Compound 60] | 50 to 100%
CN(C(=O)N1CCCC1C(F)(F)F)[C@@H]1CCN(c2ncnc3[nH]ccc23)C1 (stereo partly drawn) [Compound 59] | 50 to 100%
COCCNS(=O)(=O)c1ccc(N(C)[C@@H]2CCN(c3ncnc4[nH]ccc34)C2)nc1 [Compound 237] | 50 to 100%
CN(c1ccc(Cl)nn1)[C@@H]1CCN(c2ncnc3[nH]ccc23)C1 [Compound 85] | 50 to 100%
C#CCN(c1c(F)cc(C#N)cc1F)[C@@H]1CCN(c2ncnc3[nH]ccc23)C1 [Compound 129] | 50 to 100%
CNC(=O)c1ccc(N(C)[C@@H]2CCN(c3ncnc4[nH]ccc34)C2)nc1 [Compound 175] | 20 to 50%
CN(c1ccc(-c2nn[nH]n2)cc1F)[C@@H]1CCN(c2ncnc3[nH]ccc23)C1 [Compound 161] | 50 to 100%
CN(c1ccc(C(=O)NC(CO)c2ccc(Cl)cc2)cc1F)[C@@H]1CCN(c2ncnc3[nH]ccc23)C1 (stereo partly drawn) [Compound 201] | 50 to 100%
CN(c1ccc(S(=O)(=O)NC[C@@H]2CCCO2)cn1)[C@@H]1CCN(c2ncnc3[nH]ccc23)C1 [Compound 257] | 20 to 50%
C=CCN(C1CCCC1)[C@@H]1CCN(c2ncnc3[nH]ccc23)C1 [Compound 40] | 50 to 100%
CN([C@@H]1CCN(c2ncnc3[nH]ccc23)C1)S(=O)(=O)c1cccc([N+](=O)[O-])c1 [Compound 12] | 50 to 100%

same assay, conditions: read-out: inhibition percentage (IR %)

SMILES | inhibition at 0.3 µM
CN(c1ccc(C(=O)O)cn1)[C@@H]1CCN(c2ncnc3[nH]ccc23)C1 [Compound 170, (R)-6-((1-(7H-pyrrolo[2,3-d]pyrimidin-4-yl)pyrrolidin-3-yl)(methyl)amino)nicotinic acid] | 50 to 100%
C#Cc1ccc(N(C)[C@@H]2CCN(c3ncnc4[nH]ccc34)C2)nc1 [Compound 162, (R)—N-(1-(7H-pyrrolo[2,3-d]pyrimidin-4-yl)pyrrolidin-3-yl)-5-ethynyl-N-methylpyridin-2-amine] | 50 to 100%
